Results as given in ChEMBL document CHEMBL4385621, “Synthesis and in vitro cytotoxicity evaluation of β-carboline-combretastatin carboxamides as apoptosis inducing agents: DNA intercalation and topoisomerase-II inhibition” (Bioorg Med Chem, 2019).
The source made the active and inactive calls. No cut-off for these calls is given here.

Legend:
HeLa = experiment: Antiproliferative activity against human HeLa cells assessed as reduction in cell viability after 48 hrs by SRB assay; assay type: functional, cell-based
DU-145 = experiment: Antiproliferative activity against human DU145 cells assessed as reduction in cell viability after 48 hrs by SRB assay; assay type: functional, cell-based; conditions: DU-145, 48 h
A549 [1] = experiment: Antiproliferative activity against human A549 cells assessed as reduction in cell viability after 48 hrs by SRB assay; assay type: functional, cell-based; conditions: A549, 48 h
A549 [2] = experiment: Cell cycle arrest in human A549 cells assessed as increase in accumulation of G2/M phase at 1 to 5 uM after 24 hrs by propidium iodide staining based flow cytometric analysis; assay type: functional
A549 [3] = experiment: Cell cycle arrest in human A549 cells assessed as reduction in G0/G1 phase at 1 to 5 uM after 24 hrs by propidium iodide staining based flow cytometric analysis; assay type: functional
[4] = target: DNA topoisomerase II (Homo sapiens) (UniProt P11388+Q02880); experiment: Inhibition of human topoisomerase-2 assessed as reduction in decatenation of kDNA at 10 uM incubated for 30 mins by ethidium bromide staining based agarose gel electrophoresis method; assay type: protein assay
A549 [5] = experiment: Induction of apoptosis in human A549 cells assessed as reduction in cell viability at 1 to 5 uM after 24 hrs by phase contrast microscopic method; assay type: functional, cell-based
A549 [6] = experiment: Induction of apoptosis in human A549 cells assessed as cell shrinkage at 1 to 5 uM after 24 hrs by phase contrast microscopic method; assay type: functional, cell-based
A549 [7] = experiment: Induction of apoptosis in human A549 cells assessed as cell detachment from substratum at 1 to 5 uM after 24 hrs by phase contrast microscopic method; assay type: functional, cell-based
A549 [8] = experiment: Induction of apoptosis in human A549 cells assessed as nuclear fragmentation at 1 uM after 24 hrs by Hoechst […] staining based fluorescence microscopic method; assay type: functional, cell-based
A549 [9] = experiment: Induction of apoptosis in human A549 cells assessed as chromatin condensation at 1 uM after 24 hrs by Hoechst […] staining based fluorescence microscopic method; assay type: functional, cell-based
A549 [10] = experiment: Induction of apoptosis in human A549 cells assessed as increase in apoptotic nuclei at 3 to 5 uM after 24 hrs by Hoechst […] staining based fluorescence microscopic method; assay type: functional, cell-based
A549 [11] = experiment: Induction of apoptosis in human A549 cells assessed as increase in ROS generation at 1 to 5 uM after 24 hrs by Carboxy-DCFDA dye based fluorescence microscopic method; assay type: functional, cell-based
A549 [12] = experiment: Induction of apoptosis in human A549 cells assessed as viable cells at 1 uM after 24 hrs by Annexin V-FITC/propidium iodide staining based flow cytometry (reference value: 88.4%); assay type: functional; conditions: A549, 24 h, read-out: Activity
A549 [13] = experiment: Induction of apoptosis in human A549 cells assessed as early apoptotic cells at 1 uM after 24 hrs by Annexin V-FITC/propidium iodide staining based flow cytometry (reference value: 11.2%); assay type: functional
A549 [14] = experiment: Induction of apoptosis in human A549 cells assessed as late apoptotic cells at 1 uM after 24 hrs by Annexin V-FITC/propidium iodide staining based flow cytometry (reference value: 0.4%); assay type: functional
A549 [15] = experiment: Induction of apoptosis in human A549 cells assessed as necrotic cells at 1 uM after 24 hrs by Annexin V-FITC/propidium iodide staining based flow cytometry (reference value: 0%); assay type: functional
A549 [16] = experiment: Induction of apoptosis in human A549 cells assessed as viable cells at 3 uM after 24 hrs by Annexin V-FITC/propidium iodide staining based flow cytometry (reference value: 88.4%); assay type: functional; conditions: A549, 24 h, read-out: Activity
A549 [17] = experiment: Induction of apoptosis in human A549 cells assessed as early apoptotic cells at 3 uM after 24 hrs by Annexin V-FITC/propidium iodide staining based flow cytometry (reference value: 11.2%); assay type: functional
A549 [18] = experiment: Induction of apoptosis in human A549 cells assessed as late apoptotic cells at 3 uM after 24 hrs by Annexin V-FITC/propidium iodide staining based flow cytometry (reference value: 0.4%); assay type: functional
A549 [19] = experiment: Induction of apoptosis in human A549 cells assessed as necrotic cells at 3 uM after 24 hrs by Annexin V-FITC/propidium iodide staining based flow cytometry (reference value: 0%); assay type: functional
A549 [20] = experiment: Induction of apoptosis in human A549 cells assessed as viable cells at 5 uM after 24 hrs by Annexin V-FITC/propidium iodide staining based flow cytometry (reference value: 88.4%); assay type: functional; conditions: A549, 24 h, read-out: Activity
A549 [21] = experiment: Induction of apoptosis in human A549 cells assessed as early apoptotic cells at 5 uM after 24 hrs by Annexin V-FITC/propidium iodide staining based flow cytometry (reference value: 11.2%); assay type: functional
A549 [22] = experiment: Induction of apoptosis in human A549 cells assessed as late apoptotic cells at 5 uM after 24 hrs by Annexin V-FITC/propidium iodide staining based flow cytometry (reference value: 0.4%); assay type: functional
A549 [23] = experiment: Induction of apoptosis in human A549 cells assessed as necrotic cells at 5 uM after 24 hrs by Annexin V-FITC/propidium iodide staining based flow cytometry (reference value: 0%); assay type: functional
Calf thymus DNA [24] = experiment: Binding affinity to calf thymus DNA assessed as dissociation constant after 5 mins by UV-Visible spectroscopic method; assay type: nucleic-acid assay, Bos taurus
Calf thymus DNA [25] = experiment: Binding affinity to calf thymus DNA assessed as decrease in emission peak intensity by spectrofluorimetric method; assay type: nucleic-acid assay; conditions: Bos taurus
Calf thymus DNA [26] = experiment: Stabilization of calf thymus DNA assessed as hyperchromicity at DNA to compound ratio of 1:1 by circular dichroism spectropolarimetric analysis; assay type: nucleic-acid assay; conditions: Bos taurus
Calf thymus DNA [27] = experiment: Binding affinity to calf thymus DNA assessed as decrease in emission peak intensity using varying DNA level by spectrofluorimetric method; assay type: nucleic-acid assay; conditions: Bos taurus
Calf thymus DNA [28] = experiment: Binding affinity to calf thymus DNA assessed as hypochromicity after 5 mins by UV-Vis absorption spectral analysis; assay type: nucleic-acid assay; conditions: Bos taurus
Calf thymus DNA [29] = experiment: Binding affinity to calf thymus DNA assessed as hypochromicity at DNA to compound ratio of 1:1 to 1:2 by circular dichroism analysis; assay type: nucleic-acid assay; conditions: Bos taurus
Calf thymus DNA [30] = experiment: Binding affinity to calf thymus DNA assessed as unwinding effect at DNA to compound ratio of 1:1 to 1:2 by circular dichroism analysis; assay type: nucleic-acid assay; conditions: Bos taurus
Calf thymus DNA [31] = experiment: Binding affinity to calf thymus DNA assessed as confirmational change at DNA to compound ratio of 1:1 to 1:2 by circular dichroism analysis; assay type: nucleic-acid assay; conditions: Bos taurus
A549 [32] = experiment: Induction of apoptosis in human A549 cells after 24 hrs by Annexin V-FITC/propidium iodide staining based flow cytometry; assay type: functional, cell-based
Calf thymus DNA [33] = experiment: Effect on calf thymus DNA stabilization assessed as increase in negative band intensity by circular dichroism spectropolarimetric analysis; assay type: nucleic-acid assay; conditions: Bos taurus

IC50 (HeLa): 9.97 µM | IC50 (DU-145): 1510 nM | IC50 (A549 [1]): 1010 nM | inhibition [4]: Active | Activity (Calf thymus DNA [25]): Active | Activity (Calf thymus DNA [26]): Active | Activity (Calf thymus DNA [27]): Active | Activity (Calf thymus DNA [28]): Active | Activity (Calf thymus DNA [29]): Active | Activity (Calf thymus DNA [30]): Active | Activity (Calf thymus DNA [31]): Active | Activity (Calf thymus DNA [33]): Active
SMILES: COc1cc(/C(=C\c2ccc(C(F)(F)F)cc2)C(=O)NCc2cc3c([nH]c4ccccc43)c(-c3cccc(F)c3)n2)cc(OC)c1OC
Activity (A549 [2]): Dose-dependent effect | Activity (A549 [3]): Active | Activity (A549 [5]): Active | Activity (A549 [6]): Active | Activity (A549 [7]): Active | Activity (A549 [8]): Active | Activity (A549 [9]): Active | Activity (A549 [10]): Active | Activity (A549 [11]): Active | viability at 1 µM (A549 [12]): 69.7% | Activity (A549 [13]): 20.4% | Activity (A549 [14]): 6.8% | Activity (A549 [15]): 3.2% | viability at 3 µM (A549 [16]): 62.8% | Activity (A549 [17]): 28.6% | Activity (A549 [18]): 6.7% | Activity (A549 [19]): 1.9% | viability at 5 µM (A549 [20]): 59.3% | Activity (A549 [21]): 33.4% | Activity (A549 [22]): 4.9% | Activity (A549 [23]): 2.4% | Kd (Calf thymus DNA [24]): 71 µM | Activity (A549 [32]): Dose-dependent effect
